This passage reports 3 h FOB score results from the OligoGym collection.

HELM strings list units from the 5' end as sugar, base in round brackets, then linkage (d deoxyribose, r ribose, m 2'-O-methyl, p phosphodiester). Strings are as the collection lists them; they lack the last nucleoside at the 3' end of the tested compound. [moe] = 2'-O-(2-methoxyethyl) (MOE); [sp] = phosphorothioate linkage; [m5C] = 5-methylcytosine

The data set has as its target APP. Kind of data set: mouse, dose not given. Conditions: ASO.

On to “RNA1{[moe](G)[sp].[moe](T)p.[moe](T)p.[moe](T)p.[moe]([m5C])[sp].d(A)[sp].d(G)[sp].d(T)[sp].d(A)[sp].d(T)[sp].d(A)[sp].d(T)[sp].d(T)[sp].d([m5C])[sp].d(T)[sp].[moe]([m5C])p.[moe](T)p.[moe](G)[sp].[moe]([m5C])}$$$$ (last 3' nucleoside missing)”, for which the 3 h FOB score was determined as 0 score 0-7.
The value for “RNA1{[moe](G)[sp].[moe](T)p.[moe](T)p.[moe](T)p.[moe]([m5C])[sp].d(G)[sp].d([m5C])[sp].d(A)[sp].d(A)[sp].d(A)[sp].d([m5C])[sp].d(A)[sp].d(T)[sp].d([m5C])[sp].d([m5C])[sp].[moe](A)p.[moe](T)p.[moe]([m5C])[sp].[moe]([m5C])}$$$$ (last 3' nucleoside missing)” was 0.5 score 0-7.
The value for “RNA1{[moe](G)[sp].[moe](T)p.[moe](T)p.[moe]([m5C])p.[moe](A)[sp].d([m5C])[sp].d(A)[sp].d(G)[sp].d(T)[sp].d(T)[sp].d(T)[sp].d(A)[sp].d([m5C])[sp].d([m5C])[sp].d([m5C])[sp].[moe]([m5C])p.[moe](A)p.[moe](A)[sp].[moe](G)}$$$$ (last 3' nucleoside missing)” was 3.25 score 0-7.
“RNA1{[moe](G)[sp].[moe](T)p.[moe](T)p.[moe]([m5C])p.[moe](A)p.[moe]([m5C])[sp].d(A)[sp].d(G)[sp].d(T)[sp].d(T)[sp].d(T)[sp].d(A)[sp].d([m5C])[sp].d([m5C])[sp].d([m5C])[sp].d([m5C])[sp].[moe](A)p.[moe](A)[sp].[moe](G)}$$$$ (last 3' nucleoside missing)” showed a 3 h FOB score of 0 score 0-7.
The value for “RNA1{[moe](G)[sp].[moe](T)p.[moe](T)p.[moe]([m5C])p.[moe]([m5C])[sp].d(A)[sp].d(A)[sp].d(A)[sp].d(G)[sp].d(A)[sp].d(T)[sp].d(T)[sp].d([m5C])[sp].d([m5C])[sp].d(A)[sp].[moe]([m5C])p.[moe](T)p.[moe](T)[sp].[moe](T)}$$$$ (last 3' nucleoside missing)” was 1.25 score 0-7.
Under “RNA1{[moe](G)[sp].[moe](T)p.[moe]([m5C])p.[moe](A)p.[moe]([m5C])[sp].d(A)[sp].d(T)[sp].d(G)[sp].d(A)[sp].d(T)[sp].d(A)[sp].d(T)[sp].d(T)[sp].d(T)[sp].d([m5C])[sp].[moe](A)p.[moe](G)p.[moe](A)[sp].[moe](T)}$$$$ (last 3' nucleoside missing)” stands 1 score 0-7.
“RNA1{[moe](G)[sp].[moe](T)p.[moe]([m5C])p.[moe]([m5C])p.[moe](A)[sp].d(A)[sp].d(A)[sp].d(A)[sp].d([m5C])[sp].d(A)[sp].d([m5C])[sp].d(A)[sp].d(G)[sp].d(T)[sp].d(A)[sp].[moe]([m5C])p.[moe](A)p.[moe](A)[sp].[moe]([m5C])}$$$$ (last 3' nucleoside missing)” gave a 3 h FOB score of 1.67 score 0-7.
The value for “RNA1{[moe](G)[sp].[moe](T)p.[moe]([m5C])p.[moe]([m5C])p.[moe](A)[sp].d(T)[sp].d(T)[sp].d(A)[sp].d([m5C])[sp].d(A)[sp].d(A)[sp].d(A)[sp].d([m5C])[sp].d(A)[sp].d(A)[sp].[moe](G)p.[moe](T)p.[moe](A)[sp].[moe](A)}$$$$ (last 3' nucleoside missing)” was 1 score 0-7; that for “RNA1{[moe](G)[sp].[moe]([m5C])p.[moe](A)p.[moe](A)p.[moe](A)[sp].d(G)[sp].d(A)[sp].d(A)[sp].d([m5C])[sp].d(A)[sp].d([m5C])[sp].d([m5C])[sp].d(A)[sp].d(A)[sp].d(T)[sp].[moe](T)p.[moe](T)p.[moe](T)[sp].[moe](T)}$$$$ (last 3' nucleoside missing)” was 3 score 0-7.
Under “RNA1{[moe](G)[sp].[moe]([m5C])p.[moe](A)p.[moe](A)p.[moe](A)[sp].d([m5C])[sp].d([m5C])[sp].d(A)[sp].d([m5C])[sp].d(T)[sp].d(T)[sp].d([m5C])[sp].d(T)[sp].d(G)[sp].d(T)[sp].[moe](A)p.[moe](G)p.[moe]([m5C])[sp].[moe](T)}$$$$ (last 3' nucleoside missing)” stands 0 score 0-7; under “RNA1{[moe](G)[sp].[moe]([m5C])p.[moe](A)p.[moe](A)p.[moe](G)[sp].d(A)[sp].d([m5C])[sp].d(T)[sp].d(T)[sp].d(T)[sp].d(T)[sp].d([m5C])[sp].d(T)[sp].d(T)[sp].d(T)[sp].[moe](G)p.[moe]([m5C])p.[moe](T)[sp].[moe]([m5C])}$$$$ (last 3' nucleoside missing)”, 0 score 0-7.
The value for “RNA1{[moe](G)[sp].[moe]([m5C])p.[moe](A)p.[moe](A)p.[moe]([m5C])[sp].d(A)[sp].d(G)[sp].d(A)[sp].d(T)[sp].d([m5C])[sp].d(T)[sp].d([m5C])[sp].d(T)[sp].d(T)[sp].d(A)[sp].[moe](T)p.[moe](T)p.[moe]([m5C])[sp].[moe](T)}$$$$ (last 3' nucleoside missing)” was 0 score 0-7; that for “RNA1{[moe](G)[sp].[moe]([m5C])p.[moe](A)p.[moe](G)p.[moe](A)[sp].d(A)[sp].d(T)[sp].d(A)[sp].d([m5C])[sp].d([m5C])[sp].d(A)[sp].d(A)[sp].d(G)[sp].d(T)[sp].d(T)[sp].[moe](A)p.[moe](G)p.[moe](T)[sp].[moe](A)}$$$$ (last 3' nucleoside missing)” was 0.25 score 0-7; that for “RNA1{[moe](G)[sp].[moe]([m5C])p.[moe](A)p.[moe](G)p.[moe](A)[sp].d(A)[sp].d(T)[sp].d([m5C])[sp].d([m5C])[sp].d(A)[sp].d([m5C])[sp].d(A)[sp].d(T)[sp].d(T)[sp].d(G)[sp].[moe](T)p.[moe]([m5C])p.[moe](A)[sp].[moe]([m5C])}$$$$ (last 3' nucleoside missing)” was 1.5 score 0-7.
Consider “RNA1{[moe](G)[sp].[moe]([m5C])p.[moe](A)p.[moe](G)p.[moe](A)[sp].d(T)[sp].d([m5C])[sp].d(A)[sp].d(T)[sp].d(A)[sp].d(T)[sp].d(A)[sp].d([m5C])[sp].d(T)[sp].d(A)[sp].[moe](T)p.[moe](A)p.[moe]([m5C])[sp].[moe](A)}$$$$ (last 3' nucleoside missing)”, for which the 3 h FOB score is 0 score 0-7.
The value for “RNA1{[moe](G)[sp].[moe]([m5C])p.[moe](A)p.[moe](G)p.[moe](T)[sp].d([m5C])[sp].d(A)[sp].d(A)[sp].d(T)[sp].d([m5C])[sp].d(A)[sp].d(A)[sp].d([m5C])[sp].d(T)[sp].d([m5C])[sp].[moe]([m5C])p.[moe](A)p.[moe](A)[sp].[moe]([m5C])}$$$$ (last 3' nucleoside missing)” was 0 score 0-7.
The value for “RNA1{[moe](G)[sp].[moe]([m5C])p.[moe](A)p.[moe](G)p.[moe]([m5C])[sp].d(A)[sp].d(G)[sp].d(G)[sp].d(T)[sp].d(T)[sp].d(T)[sp].d([m5C])[sp].d([m5C])[sp].d(A)[sp].d(T)[sp].[moe](A)p.[moe](A)p.[moe](A)[sp].[moe]([m5C])}$$$$ (last 3' nucleoside missing)” was 0 score 0-7; that for “RNA1{[moe](G)[sp].[moe]([m5C])p.[moe](A)p.[moe](T)p.[moe](G)[sp].d(T)[sp].d(T)[sp].d([m5C])[sp].d(A)[sp].d(T)[sp].d(T)[sp].d([m5C])[sp].d(T)[sp].d([m5C])[sp].d(A)[sp].[moe](T)p.[moe]([m5C])p.[moe]([m5C])[sp].[moe]([m5C])}$$$$ (last 3' nucleoside missing)” was 0 score 0-7; that for “RNA1{[moe](G)[sp].[moe]([m5C])p.[moe](A)p.[moe](T)p.[moe](G)[sp].d([m5C])[sp].d([m5C])[sp].d(T)[sp].d(T)[sp].d([m5C])[sp].d([m5C])[sp].d(T)[sp].d([m5C])[sp].d(A)[sp].d(T)[sp].[moe]([m5C])p.[moe]([m5C])p.[moe]([m5C])[sp].[moe]([m5C])}$$$$ (last 3' nucleoside missing)” was 0 score 0-7.
Under “RNA1{[moe](G)[sp].[moe]([m5C])p.[moe](A)p.[moe](T)p.[moe](T)[sp].d([m5C])[sp].d(A)[sp].d([m5C])[sp].d(A)[sp].d(A)[sp].d([m5C])[sp].d(A)[sp].d([m5C])[sp].d(A)[sp].d([m5C])[sp].[moe](A)p.[moe](T)p.[moe]([m5C])[sp].[moe]([m5C])}$$$$ (last 3' nucleoside missing)” stands 0.67 score 0-7.
The substance “RNA1{[moe](G)[sp].[moe]([m5C])p.[moe](A)p.[moe](T)p.[moe](T)[sp].d([m5C])[sp].d(T)[sp].d([m5C])[sp].d(T)[sp].d(T)[sp].d(A)[sp].d(T)[sp].d(A)[sp].d(T)[sp].d(T)[sp].[moe]([m5C])p.[moe]([m5C])p.[moe](T)[sp].[moe](T)}$$$$ (last 3' nucleoside missing)” came in with a 3 h FOB score of 0 score 0-7.
Consider “RNA1{[moe](G)[sp].[moe]([m5C])p.[moe](A)p.[moe](T)p.[moe](T)p.[moe]([m5C])[sp].d(T)[sp].d([m5C])[sp].d(T)[sp].d(T)[sp].d(A)[sp].d(T)[sp].d(A)[sp].d(T)[sp].d(T)[sp].d([m5C])[sp].[moe]([m5C])p.[moe](T)[sp].[moe](T)}$$$$ (last 3' nucleoside missing)”, for which the 3 h FOB score was 1.25 score 0-7.
Under “RNA1{[moe](G)[sp].[moe]([m5C])p.[moe](A)p.[moe](T)p.[moe]([m5C])[sp].d(A)[sp].d(G)[sp].d(G)[sp].d([m5C])[sp].d(T)[sp].d(A)[sp].d(A)[sp].d([m5C])[sp].d(A)[sp].d(A)[sp].[moe](G)p.[moe](T)p.[moe](T)[sp].[moe]([m5C])}$$$$ (last 3' nucleoside missing)” stands 4 score 0-7; under “RNA1{[moe](G)[sp].[moe]([m5C])p.[moe](A)p.[moe](T)p.[moe]([m5C])[sp].d(A)[sp].d([m5C])[sp].d(A)[sp].d(A)[sp].d(T)[sp].d(T)[sp].d([m5C])[sp].d(T)[sp].d(T)[sp].d([m5C])[sp].[moe](A)p.[moe](T)p.[moe](T)[sp].[moe](G)}$$$$ (last 3' nucleoside missing)”, 0 score 0-7.
Under “RNA1{[moe](G)[sp].[moe]([m5C])p.[moe](A)p.[moe](T)p.[moe]([m5C])[sp].d(A)[sp].d([m5C])[sp].d(T)[sp].d(T)[sp].d(A)[sp].d([m5C])[sp].d(A)[sp].d(A)[sp].d(A)[sp].d([m5C])[sp].[moe](T)p.[moe]([m5C])p.[moe](A)[sp].[moe]([m5C])}$$$$ (last 3' nucleoside missing)” stands 0.5 score 0-7.
